Assay results as given in article doi:10.1101/2024.02.12.580006v1 (biorxiv, 2024).

Experiments:
PttCesA8 = molecular target: T1, PttCesA8 (Populus tremula x Populus tremuloides, UniProt Q6J8X0); assay: UDP-Glo luminescence, product inhibition, exponential fit; format: biochemical
T1 sequence (Q6J8X0 1-978): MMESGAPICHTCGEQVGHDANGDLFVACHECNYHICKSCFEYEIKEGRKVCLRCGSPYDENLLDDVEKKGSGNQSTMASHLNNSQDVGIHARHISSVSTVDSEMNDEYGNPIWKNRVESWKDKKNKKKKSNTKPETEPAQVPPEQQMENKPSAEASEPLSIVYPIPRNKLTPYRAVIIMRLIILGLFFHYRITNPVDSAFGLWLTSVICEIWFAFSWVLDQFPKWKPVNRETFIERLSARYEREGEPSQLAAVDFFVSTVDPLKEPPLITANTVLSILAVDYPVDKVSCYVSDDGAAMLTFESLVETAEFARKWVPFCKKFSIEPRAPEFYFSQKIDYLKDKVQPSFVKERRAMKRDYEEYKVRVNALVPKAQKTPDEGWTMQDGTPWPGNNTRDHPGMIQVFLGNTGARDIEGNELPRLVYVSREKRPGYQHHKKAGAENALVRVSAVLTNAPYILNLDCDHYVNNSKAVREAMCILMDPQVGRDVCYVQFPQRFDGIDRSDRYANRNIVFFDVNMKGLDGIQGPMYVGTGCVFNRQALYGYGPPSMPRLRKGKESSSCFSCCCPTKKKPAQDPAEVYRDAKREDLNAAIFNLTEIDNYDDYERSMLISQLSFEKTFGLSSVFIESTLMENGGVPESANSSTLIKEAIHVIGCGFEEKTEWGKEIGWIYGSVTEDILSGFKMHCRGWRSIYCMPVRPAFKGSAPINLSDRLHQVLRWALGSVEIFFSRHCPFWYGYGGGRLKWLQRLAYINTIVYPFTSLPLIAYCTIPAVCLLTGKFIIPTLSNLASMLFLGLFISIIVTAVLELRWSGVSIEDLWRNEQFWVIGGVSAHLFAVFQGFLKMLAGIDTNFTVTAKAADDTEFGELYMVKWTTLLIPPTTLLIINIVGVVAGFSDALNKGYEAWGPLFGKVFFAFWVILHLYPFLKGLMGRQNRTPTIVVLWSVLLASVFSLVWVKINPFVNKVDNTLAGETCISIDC

SeHas = molecular target: T2, SeHas (Streptococcus dysgalactiae, UniProt O50201); assay: as above; format: biochemical
T2 sequence (O50201 1-417): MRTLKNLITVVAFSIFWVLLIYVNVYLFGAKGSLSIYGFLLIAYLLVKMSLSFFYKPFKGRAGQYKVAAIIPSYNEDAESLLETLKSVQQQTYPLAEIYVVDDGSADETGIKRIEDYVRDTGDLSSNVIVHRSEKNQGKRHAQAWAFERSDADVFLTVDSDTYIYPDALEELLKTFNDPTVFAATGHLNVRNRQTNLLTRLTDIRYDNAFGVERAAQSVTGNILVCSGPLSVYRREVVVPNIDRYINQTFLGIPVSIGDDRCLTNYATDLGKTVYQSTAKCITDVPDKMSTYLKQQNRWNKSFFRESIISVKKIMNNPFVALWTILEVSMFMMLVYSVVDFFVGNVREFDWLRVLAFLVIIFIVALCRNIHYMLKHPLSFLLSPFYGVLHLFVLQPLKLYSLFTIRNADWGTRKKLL

purified protein = substrate: O=c1ccn([C@@H]2O[C@H](CO[P@@](=O)(O)O[P@@](=O)(O)O[C@H]3O[C@H](CO)[C@@H](O)[C@H](O)[C@H]3O)[C@@H](O)[C@H]2O)c(=O)[nH]1; assay: purified protein; settings: 20 mM MnCl2, 37 °C, 30 min, proteoliposomes

Molecule	Ki (PttCesA8) [µM]	Ki (SeHas) [µM]	Km (purified protein) [µM]	kcat (purified protein) [s⁻¹]
O=c1ccn([C@@H]2O[C@H](COP(=O)(O)OP(=O)(O)O)[C@@H](O)[C@H]2O)c(=O)[nH]1 [UDP]	10.1	24.4	–	–
PttCesA8 (Populus tremula x Populus tremuloides) (protein) MMESGAPICHTCGEQVGHDANGDLFVACHECNYHICKSCFEYEIKEGRKVCLRCGSPYDENLLDDVEKKGSGNQSTMASHLNNSQDVGIHARHISSVSTVDSEMNDEYGNPIWKNRVESWKDKKNKKKKSNTKPETEPAQVPPEQQMENKPSAEASEPLSIVYPIPRNKLTPYRAVIIMRLIILGLFFHYRITNPVDSAFGLWLTSVICEIWFAFSWVLDQFPKWKPVNRETFIERLSARYEREGEPSQLAAVDFFVSTVDPLKEPPLITANTVLSILAVDYPVDKVSCYVSDDGAAMLTFESLVETAEFARKWVPFCKKFSIEPRAPEFYFSQKIDYLKDKVQPSFVKERRAMKRDYEEYKVRVNALVPKAQKTPDEGWTMQDGTPWPGNNTRDHPGMIQVFLGNTGARDIEGNELPRLVYVSREKRPGYQHHKKAGAENALVRVSAVLTNAPYILNLDCDHYVNNSKAVREAMCILMDPQVGRDVCYVQFPQRFDGIDRSDRYANRNIVFFDVNMKGLDGIQGPMYVGTGCVFNRQALYGYGPPSMPRLRKGKESSSCFSCCCPTKKKPAQDPAEVYRDAKREDLNAAIFNLTEIDNYDDYERSMLISQLSFEKTFGLSSVFIESTLMENGGVPESANSSTLIKEAIHVIGCGFEEKTEWGKEIGWIYGSVTEDILSGFKMHCRGWRSIYCMPVRPAFKGSAPINLSDRLHQVLRWALGSVEIFFSRHCPFWYGYGGGRLKWLQRLAYINTIVYPFTSLPLIAYCTIPAVCLLTGKFIIPTLSNLASMLFLGLFISIIVTAVLELRWSGVSIEDLWRNEQFWVIGGVSAHLFAVFQGFLKMLAGIDTNFTVTAKAADDTEFGELYMVKWTTLLIPPTTLLIINIVGVVAGFSDALNKGYEAWGPLFGKVFFAFWVILHLYPFLKGLMGRQNRTPTIVVLWSVLLASVFSLVWVKINPFVNKVDNTLAGETCISIDC	–	–	295.8	21.57
